{"source": "patent US20220315890A1", "about": "“NERVE CELL AND APPLICATION THEREOF” (FUJIFILM Corporation, priority 2021, published 2022)", "key": {"[1]": {"target": "T1, tau aggregation in hiPSC-derived nerve cells overexpressing tau (1N4R) (Homo sapiens, UniProt P10636)", "T1 construct": "expressed in transfected cells; host or cells: human iPS cell-derived nerve cells (Ngn2 / miR-9/9*-124 induced), transduced with CSII-TRE-hTau (1N4R)-IRES-Zeo lentivirus, DOX-induced", "T1 sequence (P10636 1-412 isoform P10636-7)": "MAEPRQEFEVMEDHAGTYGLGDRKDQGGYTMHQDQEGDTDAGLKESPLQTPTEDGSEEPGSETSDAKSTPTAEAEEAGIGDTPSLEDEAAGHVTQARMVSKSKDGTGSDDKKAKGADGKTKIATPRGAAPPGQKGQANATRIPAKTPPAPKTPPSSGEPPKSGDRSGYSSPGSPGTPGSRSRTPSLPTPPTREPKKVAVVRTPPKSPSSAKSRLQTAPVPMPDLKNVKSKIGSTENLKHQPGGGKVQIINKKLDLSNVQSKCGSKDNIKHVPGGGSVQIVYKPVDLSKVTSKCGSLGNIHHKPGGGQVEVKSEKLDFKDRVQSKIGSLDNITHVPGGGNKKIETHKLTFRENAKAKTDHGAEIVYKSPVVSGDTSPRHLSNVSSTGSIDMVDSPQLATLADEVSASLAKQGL", "experiment": "Tau aggregation: Tau oligomer antibody (T22)-positive protrusion length standardized with 4R tau antibody-positive protrusion length", "format": "cell-based", "details": "at the compound concentration at which a cytoprotective action was exhibited; fluorescent staining; FIG. 8", "description": "(§1) Frozen nerve cells were thawed in a hot water bath and plated on a 96-well plate at the number of cells of about 3×10^4 cells/well or on a 12-well plate at about 30×10^4 cells/well, where the plates had been coated with poly-D-lysine (PDL) and iMatrix (Nippi, Incorporated), in a neural replating medium containing DOX (a medium obtained by adding 2% of a B27 Plus supplement, 1% of a Culture One supplement, 200 μmol/L of dbcAMP, 200 μmol/L of L-ascorbic acid, and 2 μg/mL of DOX to a Neurobasal plus:DMEM/F12 HAM=1:1 medium). In addition, 1 μmol/L of Tau Accell siRNA (Dharmacon, Inc., #A-012488-13) described in (7) below or a compound described in (9) below was added thereto. After the culture in a CO2 incubator at 37° C. for 2 days, the cells were […] and cultured for about 7 days, and then various evaluations were carried out.\nThe nerve cells after the overexpression of tau according to the method (4) were subjected to fluorescent staining using a tau oligomer antibody (T22) (Merck Millipore).\nThe cytoprotective action of the compound was measured by a CellTiter Glo assay. The effect on tau aggregation was quantified by standardizing the Tau oligomer antibody-positive protrusion length in the neurite obtained by fluorescent staining with the 4R tau antibody-positive protrusion length."}, "[2]": {"test_system": "hiPSC-derived nerve cells overexpressing tau (1N4R)", "experiment": "Nerve cell death / cell survival by CellTiter Glo assay after overexpression of tau", "format": "cell-based, human", "details": "compound added at replating, 2 days before lentivirus infection, cultured about 7 days, FIG. 8", "description": "as §1\nThe decrease in cell survival rate due to overexpression of tau according to the method (4) was confirmed by the CellTiter Glo assay (Promega Corporation). It was confirmed that about 20% to 90% of nerve cell death occurred due to overexpression of tau depending on the amount of lentivirus.\nAccording to the method (4), the drug efficacy of methylene blue and isoproterenol, which had been reported to have an inhibitory action on tau aggregation in nerve cells after the overexpression of tau, and a microtubule stabilizer epothilone D was evaluated. The cytoprotective action of the compound was measured by a CellTiter Glo assay. The effect on tau aggregation was quantified by standardizing the Tau oligomer antibody-positive protrusion length in the neurite obtained by fluorescent staining with the 4R tau antibody-positive protrusion length."}}, "data": [{"smiles": "C/C1=C/C[C@@H](/C(C)=C/c2csc(C)n2)OC(=O)C[C@H](O)C(C)(C)C(=O)[C@H](C)[C@@H](O)[C@@H](C)CCC1", "note": "[epothilone D]", "values": [{"measurement": "effect on tau aggregation (tau polymerization)", "setting": "[1]", "value": "not changed"}, {"measurement": "cytoprotective action (CellTiter Glo assay)", "setting": "[2]", "value": "partial cytoprotective action"}]}, {"smiles": "CN(C)c1ccc2nc3ccc(=[N+](C)C)cc-3sc2c1", "note": "[methylene blue]", "values": [{"measurement": "effect on tau aggregation (tau polymerization)", "setting": "[1]", "value": "partial inhibitory action on tau aggregation"}, {"measurement": "cytoprotective action (CellTiter Glo assay)", "setting": "[2]", "value": "partial cytoprotective action"}]}, {"smiles": "CC(C)NCC(O)c1ccc(O)c(O)c1", "note": "(stereo not drawn) [isoproterenol]", "values": [{"measurement": "effect on tau aggregation (tau polymerization)", "setting": "[1]", "value": "partial inhibitory action on tau aggregation"}, {"measurement": "cytoprotective action (CellTiter Glo assay)", "setting": "[2]", "value": "partial cytoprotective action"}]}]}
